Laboratory results reported in patent US5468728A, “Use of orally absorbable motilin preparations to enhance motility of digestive tract” (Sanwa Kagaku Kenkyusho Co., Ltd., priority 1991, dated 1995).

Tested on: intestinal tracts
Assay: Contraction of the intestinal tracts in dogs by the balloon method, intravenous and nasal administration
Type: in vivo
Excerpt: L-leucine-13-motilin (A) and L-leucine-13-motilin-homoserin (B) were administrated to dogs through an intravenous route ([…]) by the ballon method to determine their activities on the contraction of the intestinal tracts, and the action of the surface active agent on promoting the absorption of the active substances administrated through a nasal administration was estimated in terms of percentage relative to the activity--100%-- of L-leucine-13-motilin administrated through an intravenous route on the contraction.
L-leucine-13-motilin-homoserine and L-leucine-13-motilin were each dissolved in purified water to prepare an aqueous solution, which was then aseptically poured into a vial in such a way that it contained the active substance in an amount of 1 mg when calculated as polypeptide. Each vial was finally sealed together and freeze-dried. For use, this vial is dissolved in physiological saline for injection.

[1] = Intravenous Administration (2.0 μg/kg/hr)
[2] = Nasal Administration (100 μg/kg/hr), Control = injection preparation without surface active agent

## L-leucine-13-motilin [A]
[1]
  activity on the contraction of the intestinal tracts, percentage relative to L-leucine-13-motilin intravenous (100%): 100 ± 0%
[2]
  activity on the contraction of the intestinal tracts, percentage relative to L-leucine-13-motilin intravenous (100%): No activity found

## L-leucine-13-motilin-homoserine [B]
[1]
  activity on the contraction of the intestinal tracts, percentage relative to L-leucine-13-motilin intravenous (100%): 115 ± 5%
[2]
  activity on the contraction of the intestinal tracts, percentage relative to L-leucine-13-motilin intravenous (100%): ≤ 30%
